The source of these data is ChEMBL document CHEMBL1127941, “Norleucine as a replacement for methionine in phosphatase-resistant linear and cyclic peptides which bind to p85 SH2 domains” (Bioorg Med Chem Lett, 1994).

Numbered stars: 1 amine (or outer) side, 2 acyl side, 3 side chain; on linkers, the order of the positions; unused ones are H or OH. Square brackets hold non-standard residues; d marks the D form. Peptide text beside a SMILES is read from it. X2 = O=C([C@@H](Cc1ccc(C(F)(F)OP(=O)(O)O)cc1)N[*:1])[*:2]; X1 = O=C([C@H](Cc1ccc(C(F)(F)OP(=O)(O)O)cc1)N[*:1])[*:2]; Pmp = N[C@@H](Cc1ccc(CP(=O)(O)O)cc1)C(=O)O; pY = N[C@@H](Cc1ccc(OP(=O)(O)O)cc1)C(=O)O; Nle = CCCC[C@H](N)C(=O)O

The test in a line: Binding affinity to Phosphatidylinositol 3-kinase C-terminal p85 SH2 domain.

In turn, `CCCC[C@@H]1NC(=O)[C@H]2CCCN2C(=O)[C@H](C(C)C)NC(=O)[C@@H](Cc2ccc(OP(=O)(O)O)cc2)NC(=O)CNC(=O)[C@@H](CC(C)C)NC1=O` had an ID50 of 15.6 µM.

`CSCC[C@@H]1NC(=O)[C@H]2CCCN2C(=O)[C@H](C(C)C)NC(=O)[C@@H](Cc2ccc(COP(=O)(O)O)cc2)NC(=O)CNC(=O)[C@@H](CC(C)C)NC1=O` displayed an ID50 of 5.2 µM.

In the case of `CSCC[C@@H]1NC(=O)[C@H]2CCCN2C(=O)[C@H](C(C)C)NC(=O)[C@@H](Cc2ccc(OP(=O)(O)O)cc2)NC(=O)CNC(=O)[C@@H](CC(C)C)NC1=O`, the ID50 is 1.01 µM.

On to `CSCC[C@H](NC(=O)[C@@H]1CCCN1C(=O)[C@@H](NC(=O)[C@H](Cc1ccc(CP(=O)(O)O)cc1)NC(=O)CN)C(C)C)C(=O)N[C@@H](CC(C)C)C(=O)O` (H-G[Pmp]VPML-OH), for which the ID50 stood at 0.98 µM.

`CCCC[C@H](NC(=O)[C@@H]1CCCN1C(=O)[C@@H](NC(=O)[C@H](Cc1ccc(CP(=O)(O)O)cc1)NC(=O)CN)C(C)C)C(=O)N[C@@H](CC(C)C)C(=O)O` (H-G[Pmp]VP[Nle]L-OH) returned an ID50 of 1.6 µM.

Compound `CSCC[C@H](NC(=O)[C@@H]1CCCN1C(=O)[C@@H](NC(=O)[C@H](Cc1ccc(OP(=O)(O)O)cc1)NC(=O)CN)C(C)C)C(=O)N[C@@H](CC(C)C)C(=O)O` (H-G[pY]VPML-OH) gave an ID50 of 0.17 µM.

`CSCC[C@@H]1NC(=O)[C@@H]2CCCN2C(=O)[C@H](C(C)C)NC(=O)[C@H](Cc2ccc(C(F)(F)OP(=O)(O)O)cc2)NC(=O)CNC(=O)[C@H](CC(C)C)NC1=O` (cyclo(G[X1]VPML)): the ID50 was found to be 2.24 µM.

Regarding `CCCC[C@@H]1NC(=O)[C@@H]2CCCN2C(=O)[C@H](C(C)C)NC(=O)[C@H](Cc2ccc(C(F)(F)OP(=O)(O)O)cc2)NC(=O)CNC(=O)[C@H](CC(C)C)NC1=O` (cyclo(G[X1]VP[Nle]L)), the ID50 was found to be 8.9 µM.

As to `CSCC[C@@H]1NC(=O)[C@@H]2CCCN2C(=O)[C@H](C(C)C)NC(=O)[C@@H](Cc2ccc(C(F)(F)OP(=O)(O)O)cc2)NC(=O)CNC(=O)[C@H](CC(C)C)NC1=O` (cyclo(G[X2]VPML)), the ID50 amounted to 32.4 µM.

`CCCC[C@@H]1NC(=O)[C@@H]2CCCN2C(=O)[C@H](C(C)C)NC(=O)[C@@H](Cc2ccc(C(F)(F)OP(=O)(O)O)cc2)NC(=O)CNC(=O)[C@H](CC(C)C)NC1=O` (cyclo(G[X2]VP[Nle]L)) came in with an ID50 of 59.1 µM.

For the compound `CCCC[C@H](NC(=O)[C@@H]1CCCN1C(=O)[C@@H](NC(=O)C(Cc1ccc(CP(=O)(O)O)cc1)NC(=O)CN)C(C)C)C(=O)N[C@@H](CC(C)C)C(=O)O` (single isomer, unassigned), the ID50 was determined as 109 µM.

On to `CSCC[C@H](NC(=O)[C@@H]1CCCN1C(=O)[C@@H](NC(=O)C(Cc1ccc(CP(=O)(O)O)cc1)NC(=O)CN)C(C)C)C(=O)N[C@@H](CC(C)C)C(=O)O` (single isomer, unassigned), for which the ID50 is 29.4 µM.
